Reference: PubChem BioAssay (NCI)
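Cells were grown in 96-well plates and exposed to each compound for 48 hours at five concentrations; endpoints were interpolated linearly between bracketing concentrations, or set to the highest concentration if not reached. Definition used: TGI = concentration required for complete inhibition of growth.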

Columns and labels:
Test in all cases: NCI-60 cell line screen, 48 h
[1] = test system: HOP-92 NSCLC
[2] = test system: CAKI-1 renal
[3] = test system: HCT-15 colon
[4] = test system: DLD-1 colon
[5] = test system: HCC-2998 colon
[6] = test system: NCI-H226 lung
[7] = test system: ACHN renal
[8] = test system: HL-60(TB) leukemia
[9] = test system: COLO 205 colon
[10] = test system: IGROV1 ovarian
[11] = test system: 786-0 renal
[12] = test system: MOLT-4 leukemia
[13] = test system: DMS 273 small cell lung
[14] = test system: K-562 leukemia
[15] = test system: SK-MEL-5 melanoma
[16] = test system: RPMI-8226 leukemia
[17] = test system: SF-539 CNS
[18] = test system: UACC-257 melanoma
[19] = test system: KM12 colon
[20] = test system: SNB-78 CNS
[21] = test system: MALME-3M melanoma
[22] = test system: A549 NSCLC
[23] = test system: SNB-19 CNS
[24] = test system: SF-268 CNS
[25] = test system: HCT-116 colon
[26] = test system: RXF-631 renal
[27] = test system: OVCAR-3 ovarian
[28] = test system: M19-MEL melanoma
[29] = test system: SF-295 CNS
[30] = test system: DMS 114 small cell lung
[31] = test system: HT29 colon
[32] = test system: SR leukemia
[33] = test system: M14 melanoma
[34] = test system: UACC-62 melanoma
[35] = test system: SK-OV-3 ovarian
[36] = test system: SNB-75 CNS
[37] = test system: RXF 393 renal
[38] = test system: NCI-H23 lung
[39] = test system: KM20L2 colon
[40] = test system: SK-MEL-28 melanoma
[41] = test system: XF 498 CNS
[42] = test system: SN12C renal
[43] = test system: OVCAR-5 ovarian
[44] = test system: OVCAR-8 ovarian
[45] = test system: LOX IMVI melanoma
[46] = test system: TK-10 renal
[47] = test system: NCI-H522 lung
[48] = test system: U251 CNS
[49] = test system: SW-620 colon
[50] = test system: UO-31 renal
[51] = test system: NCI-H460 lung
[52] = test system: LXFL 529 NSCLC
[53] = test system: OVCAR-4 ovarian
[54] = test system: A498 renal
[55] = test system: SK-MEL-2 melanoma
[56] = test system: EKVX NSCLC
[57] = test system: CCRF-CEM leukemia
[58] = test system: HOP-62 NSCLC

Compound `CC1(C)C(=NN=C(N)N)C(C)(C)C1=NN=C(N)N` has a TGI [1] greater than 100 µM, a TGI [2] greater than 100 µM and a TGI [3] greater than 100 µM. It also gave a TGI [4] greater than 100 µM, a TGI [5] greater than 100 µM and a TGI [6] greater than 100 µM. The TGI [7] was greater than 100 µM, the TGI [8] was greater than 100 µM and the TGI [9] was greater than 100 µM. The TGI [10] was greater than 100 µM, the TGI [11] was greater than 100 µM and the TGI [12] was greater than 100 µM. For the same compound, the TGI [13] was greater than 100 µM, the TGI [14] was greater than 100 µM and the TGI [15] was greater than 100 µM. The TGI [16] was greater than 100 µM, the TGI [17] was greater than 100 µM and the TGI [18] was greater than 100 µM. It also gave a TGI [19] greater than 100 µM, a TGI [20] greater than 100 µM and a TGI [21] greater than 100 µM. The TGI [22] was greater than 100 µM, the TGI [23] was greater than 100 µM and the TGI [24] was greater than 100 µM. The TGI [25] was greater than 100 µM, the TGI [26] was greater than 100 µM and the TGI [27] was greater than 100 µM. The TGI [28] was greater than 100 µM, the TGI [29] was greater than 100 µM and the TGI [30] was greater than 100 µM. It also gave a TGI [31] greater than 100 µM, a TGI [32] greater than 100 µM and a TGI [33] greater than 100 µM. The TGI [34] was greater than 100 µM, the TGI [35] was greater than 100 µM and the TGI [36] was greater than 100 µM. The TGI [37] was greater than 100 µM, the TGI [38] was greater than 100 µM and the TGI [39] was greater than 100 µM. The TGI [40] was greater than 100 µM, the TGI [41] was greater than 100 µM and the TGI [42] was greater than 100 µM. For the same compound, the TGI [43] was greater than 100 µM, the TGI [44] was greater than 100 µM and the TGI [45] was greater than 100 µM. The TGI [46] was greater than 100 µM, the TGI [47] was greater than 100 µM and the TGI [48] was greater than 100 µM. It also gave a TGI [49] greater than 100 µM, a TGI [50] greater than 100 µM and a TGI [51] greater than 100 µM. It also gave a TGI [52] greater than 100 µM and a TGI [53] greater than 100 µM.
For `CCc1c(C)[nH]c2c1/C(=N/N=C1\CCCc3[nH]c(C)c(CC)c31)CCC2`, the TGI [1] was 51.5 µM, the TGI [54] was 75 µM and the TGI [2] was greater than 100 µM. For the same compound, the TGI [3] was 52.5 µM, the TGI [4] was greater than 100 µM and the TGI [5] was greater than 100 µM. For the same compound, the TGI [6] was 39.7 µM, the TGI [7] was 69.2 µM and the TGI [8] was 36.4 µM. For the same compound, the TGI [9] was 41.6 µM, the TGI [10] was 83.6 µM and the TGI [11] was greater than 100 µM. The TGI [12] was 39.4 µM, the TGI [55] was greater than 100 µM and the TGI [13] was 36.7 µM. For the same compound, the TGI [14] was greater than 100 µM, the TGI [15] was 27.6 µM and the TGI [16] was 33.9 µM. It also gave a TGI [17] of 81.5 µM, a TGI [18] of 31.9 µM and a TGI [19] of 31.3 µM. The TGI [20] was 85.8 µM, the TGI [21] was greater than 100 µM and the TGI [22] was greater than 100 µM. The TGI [23] was greater than 100 µM, the TGI [24] was 61.9 µM and the TGI [25] was 50.5 µM. It also gave a TGI [56] greater than 100 µM, a TGI [26] greater than 100 µM and a TGI [57] of 76.4 µM. The TGI [27] was 39.7 µM, the TGI [28] was 48.3 µM and the TGI [29] was 46.6 µM. For the same compound, the TGI [30] was 34.1 µM, the TGI [31] was 81.3 µM and the TGI [33] was 41.2 µM. The TGI [34] was 48.8 µM, the TGI [35] was 78.4 µM and the TGI [36] was 50.1 µM. The TGI [37] was 70.5 µM, the TGI [38] was 62.7 µM and the TGI [39] was greater than 100 µM. For the same compound, the TGI [40] was 35.9 µM, the TGI [41] was 34.4 µM and the TGI [42] was greater than 100 µM. For the same compound, the TGI [43] was greater than 100 µM, the TGI [44] was 78.2 µM and the TGI [45] was 54.6 µM. For the same compound, the TGI [46] was greater than 100 µM, the TGI [58] was greater than 100 µM and the TGI [47] was 33.1 µM. For the same compound, the TGI [48] was 35.4 µM, the TGI [49] was 78 µM and the TGI [50] was 39.5 µM. It also gave a TGI [51] of 43.2 µM, a TGI [52] of 30.2 µM and a TGI [53] of 52 µM.
Compound `O=c1c(C(=Nc2ccccc2)c2ccccc2)c[nH]n1-c1ccccc1` has a TGI [54] greater than 100 µM, a TGI [2] greater than 100 µM and a TGI [3] greater than 100 µM. For the same compound, the TGI [4] was greater than 100 µM, the TGI [5] was greater than 100 µM and the TGI [7] was greater than 100 µM. It also gave a TGI [8] greater than 100 µM, a TGI [9] greater than 100 µM and a TGI [10] greater than 100 µM. For the same compound, the TGI [11] was greater than 100 µM, the TGI [12] was greater than 100 µM and the TGI [55] was greater than 100 µM. For the same compound, the TGI [13] was greater than 100 µM, the TGI [14] was greater than 100 µM and the TGI [15] was greater than 100 µM. It also gave a TGI [16] greater than 100 µM, a TGI [17] greater than 100 µM and a TGI [18] greater than 100 µM. It also gave a TGI [19] greater than 100 µM, a TGI [20] greater than 100 µM and a TGI [21] greater than 100 µM. For the same compound, the TGI [22] was greater than 100 µM, the TGI [23] was greater than 100 µM and the TGI [24] was greater than 100 µM. For the same compound, the TGI [56] was greater than 100 µM, the TGI [26] was greater than 100 µM and the TGI [57] was greater than 100 µM. The TGI [29] was greater than 100 µM, the TGI [30] was greater than 100 µM and the TGI [31] was greater than 100 µM. It also gave a TGI [33] greater than 100 µM, a TGI [34] greater than 100 µM and a TGI [35] greater than 100 µM. For the same compound, the TGI [36] was greater than 100 µM, the TGI [37] was 72.8 µM and the TGI [38] was greater than 100 µM. For the same compound, the TGI [39] was greater than 100 µM, the TGI [40] was greater than 100 µM and the TGI [41] was greater than 100 µM. It also gave a TGI [42] greater than 100 µM, a TGI [43] greater than 100 µM and a TGI [44] greater than 100 µM. It also gave a TGI [45] greater than 100 µM, a TGI [46] greater than 100 µM and a TGI [47] greater than 100 µM. For the same compound, the TGI [48] was greater than 100 µM, the TGI [49] was greater than 100 µM and the TGI [50] was greater than 100 µM. It also gave a TGI [51] greater than 100 µM, a TGI [52] greater than 100 µM and a TGI [53] greater than 100 µM.
